Source: US10189803B2, “Synthesis of therapeutic and diagnostic drugs centered on regioselective and stereoselective ring opening of aziridinium ions” (ILLINOIS INSTITUTE OF TECHNOLOGY, priority 2008, dated 2019)
Like-named read-outs stand apart in the source and are kept apart here.

Legend:
[1] = T1 relaxivity of Gd(III) complexes (Bruker mq60 NMR analyzer); assay type: physicochemical; settings: aqueous Gd(III) complexes; for T1 relaxivity: pH 7, 59.97 MHz, 37° C.
Experimental: Gd(NE3TA) and Gd(NE3TA-Bn) were synthesized by reacting GdCl3 with NE3TA and NE3TA-Bn, respectively. NE3TA or NE3TA-Bn were mixed with GdCl3 in a molar ratio of 1 to 0.9, and the resulting mixture at pH 7 was heated to 90° C. and stirred until no free Gd(III) ions were detected using an ArsenazoIII (AAIII) assay. Relaxivity of the aqueous […] complexes (pH 7) was measured on a Bruker MQ60 NMR analyzer, and the concentration of the Gd(III) complexes was measured by ICP-MS. […] NE3TA was successfully conjugated with the most common bile acid, cholic acid (FIG. 41).
(§1) Relaxivity Measurements. Relaxivity measurements were acquired by taking the slope of a plot of 1/T1 (s^−1) versus concentration (mM). The longitudinal water proton relaxation times (T1) were determined using a Bruker mq60 NMR (Bruker Canada, Milton, ON, Canada) analyzer operating at 59.97 MHz and 37° C. The agent was added to Millipore water and serially diluted by 0.5 to give a series of 5 concentrations (500 μL total volume) for each relaxivity trial. The T1 was determined using an inversion recovery pulse sequence with 10 different pulse separations per sample, 4 repetitions per echo time, phase cycling, and a recycle delay that is ≥5 times the T1 of each given sample. All curves were fit using a monoexponential curve fitting formula.
Relaxivity of the aqueous Gd(III) complexes (˜pH 7) were measured on a Bruker MQ60 NMR analyzer, and the concentration of the Gd(III) complexes were measured by ICP-MS. […] As mentioned above, the on and off binding to Gd(III) of one of the pendant coordinates would have resulted enhanced relaxivity of Gd(C-NETA) compared to Gd(C-DOTA). Among the evaluated Gd(III) complexes, Gd(C-NE3TA) gives the highest T1 relaxivity at 60 MHz, probably due to increase in q. The relaxation rates for the Gd(III) chelates are dominated by the inner-sphere dipolar coupling between the coordinated water molecule and the paramagnetic Gd(III). The measured relaxivities arise from the exchange between the coordinated water molecule and the surrounding water molecules in solution. […] No indication of Gd(III) dissociation is evident from the relaxivity data, which is in agreement with the in vitro serum stability and in vivo biodistribution studies.
as §1, with “The T1 relaxivity was determined” for “The T1 was determined”

[2] = cited from earlier work
[3] = In vitro serum stability of radiolabeled C-NE3TA complexes in human serum (SE-HPLC); assay type: in vitro ADME; settings: 37° C., up to 11 days
Experimental: C-NE3TA was radiolabeled with ^90Y, ^177Lu, ^203Pb, ^205/6Bi, or ^153Gd as previously described (Chong, H. S.; Milenic, D. E.; Garmestani, K.; Brady, E. D.; Arora, H.; Pfiester, C.; Brechbiel, M. W., Nucl. Med. Biol. 2006, 33, 459-67; Chong H S, Garmestani K, Bryant Jr., L H Milenic D E, Overstreet T, Birch N, Le N, Brady E D, Brechbiel M W. J. Med. Chem. 2006, 49, 2055-2062). In vitro serum stability of the radiolabeled complexes purified via ion-exchange chromatography was performed to determine if C-NE3TA labeled with the radioisotopes remained stable without transchelation or loss of their respective radionuclide in human serum. This was assessed by measuring the transfer of radionuclide from the complex to serum proteins over the course of 11 days.
In vitro stability of the radiolabeled metal complexes. The stability of the purified radiolabeled complexes was evaluated in human serum (Gemini Bioproducts, Woodland, Calif.) for up to 11 days. The serum stability of the radiolabeled complexes was assessed by measuring the transfer of the radionuclide from each complex to serum proteins using SE-HPLC methods. Radiolabeled complexes were diluted to an appropriate volume that allowed for preparation of multiple samples containing 5-10 μCi and were filter-sterilized using a Millex-GV 0.22 μm filter. This stock solution was then mixed with 1400 μL of sterile normal human serum. Aliquots (200 μL) were drawn and separated into individual tubes for subsequent analysis using aseptic technique. The samples were incubated at 37° C., and at designated intervals, subjected to analysis by SE-HPLC. Samples were loaded onto the HPLC and eluted with PBS, pH 7.4 isocratically at 1 mL/min. […] Radioactivity associated with a transfer to serum proteins generally appeared at ˜6 min.

[4] = In vivo biodistribution of radiolabeled complexes in normal athymic mice; settings: for percent injected dose per gram, Blood / percent injected dose per gram, Femur / percent injected dose per gram, Heart / percent injected dose per gram, Kidney / percent injected dose per gram, Liver / percent injected dose per gram, Lung / percent injected dose per gram, Spleen: non-tumor bearing mice, ± SD
Experimental: The in vivo stability of the radiolabeled complexes was evaluated by performing biodistribution studies in normal athymic mice. Selected organs and the blood were harvested at five time points, 0.5, 1, 4, 8, and 24 h post-injection and the radioactivity measured. […] C-NE3TA radiolabeled with ^153Gd was almost completely cleared from blood, liver, spleen, lung, heart, and femur in less than 4 hours, and radioactivity level in the kidney was 0.16%±0.11 ID/g at 24 hour post-injection (Table 9).
In vivo biodistribution studies oh the radiolabeled metal complexes. Female athymic mice were obtained from Charles River Laboratories (Wilmington, Mass.) at 4-6 weeks of age. The pH of the radiolabeled ligands was adjusted to pH ˜7.0 with 0.5 M sodium bicarbonate (pH 10.5) and diluted in phosphate-buffered saline. The radiolabeled ligands ([…] for ^86Y, ^205/6Bi, ^177Lu, and ^203Pb) were administered to the mice in 200 μL of solution via tail vein injection. The mice (5 per data point) were sacrificed by exsanguination at 0.5, 1, 4, 8, and 24 h. Blood and the major organs were harvested, wet-weighed and the radioactivity measured in a γ-scintillation counter (1480 Wizard, Perkin Elmer). The percent injected dose per gram (% ID/g) was determined for each tissue. The values presented are the mean and standard deviation for each tissue.

## O=C(O)CNC(Cc1ccc([N+](=O)[O-])cc1)CN1CCN(CC(=O)O)CCN(CC(=O)O)CC1.[Gd] (stereo not drawn) [Gd(C-NE3TA)]
[1]; ~pH 7, 60 MHz
  T1 relaxivity of Gd(III) complexes of bifunctional ligands: 5.89 mM⁻¹ s⁻¹

## O=C([O-])CN1CCN(CC(=O)[O-])CCN(CC(=O)O)CCN(CC(=O)[O-])CC1.[Gd+3] [Gd(DOTA), reference compound]
[1]
  T1 relaxivity: 2.97 mM⁻¹ s⁻¹

## O=C(O)CNCCN1CCN(CC(=O)O)CCN(CC(=O)O)CC1.[Gd] [Gd(NE3TA)]
[1]
  T1 relaxivity: 3.94 mM⁻¹ s⁻¹

## O=C(O)CN1CCN(CCN(CC(=O)O)CC(=O)O)CCN(CC(=O)O)CC1.[177Lu] [^177Lu-NETA]
[2]; in vivo
  organ uptake and blood clearance (in words): very low organ uptake and rapid blood clearance

## O=C([O-])CNC(Cc1ccc([N+](=O)[O-])cc1)CN1CCN(CC(=O)[O-])CCN(CC(=O)[O-])CC1.[Bi+3] (stereo not drawn) [^205/6Bi-C-NE3TA]
[3]
  stability in human serum (in words): no measurable loss of radioactivity
[4]; 0.50 hr
  percent injected dose per gram, Blood: 0.46 ± 0.18 % ID/g
  percent injected dose per gram, Femur: 0.62 ± 0.27 % ID/g
  percent injected dose per gram, Heart: 0.36 ± 0.09 % ID/g
  percent injected dose per gram, Kidney: 5.05±0.24 % ID/g
  percent injected dose per gram, Liver: 1.01 ± 0.15 % ID/g
  percent injected dose per gram, Lung: 0.56 ± 0.13 % ID/g
  percent injected dose per gram, Spleen: 0.45 ± 0.24 % ID/g
[4]; 0.50 hr, listed as 205/6BiC-NE3TA
  percent injected dose per gram, Kidney: 5.05 ± 0.24 % ID/g
[4]; 1.00 hr
  percent injected dose per gram, Blood: 0.13 ± 0.02 % ID/g
  percent injected dose per gram, Femur: 0.26 ± 0.05 % ID/g
  percent injected dose per gram, Heart: 0.19 ± 0.02 % ID/g
  percent injected dose per gram, Kidney: 4.69 ± 0.55 % ID/g
  percent injected dose per gram, Liver: 0.80 ± 0.16 % ID/g
  percent injected dose per gram, Lung: 0.25 ± 0.03 % ID/g
  percent injected dose per gram, Spleen: 0.25 ± 0.02 % ID/g
[4]; 4.00 hr
  percent injected dose per gram, Blood: 0.03 ± 0.00 % ID/g
  percent injected dose per gram, Femur: 0.23 ± 0.06 % ID/g
  percent injected dose per gram, Heart: 0.12 ± 0.01 % ID/g
  percent injected dose per gram, Kidney: 3.42 ± 0.55 % ID/g
  percent injected dose per gram, Liver: 0.52 ± 0.13 % ID/g
  percent injected dose per gram, Lung: 0.16 ± 0.01 % ID/g
  percent injected dose per gram, Spleen: 0.18 ± 0.01 % ID/g
[4]; 8.00 hr
  percent injected dose per gram, Blood: 0.02 ± 0.01 % ID/g
  percent injected dose per gram, Femur: 0.14 ± 0.02 % ID/g
  percent injected dose per gram, Heart: 0.09 ± 0.01 % ID/g
  percent injected dose per gram, Kidney: 1.99 ± 0.32 % ID/g
  percent injected dose per gram, Liver: 0.37 ± 0.08 % ID/g
  percent injected dose per gram, Lung: 0.13 ± 0.04 % ID/g
  percent injected dose per gram, Spleen: 0.12 ± 0.02 % ID/g
[4]; 24.00 hr
  percent injected dose per gram, Blood: 0.01 ± 0.00 % ID/g
  percent injected dose per gram, Femur: 0.13 ± 0.01 % ID/g
  percent injected dose per gram, Heart: 0.08 ± 0.02 % ID/g
  percent injected dose per gram, Kidney: 0.73±0.19 % ID/g
  percent injected dose per gram, Liver: 0.14 ± 0.03 % ID/g
  percent injected dose per gram, Lung: 0.09 ± 0.01 % ID/g
  percent injected dose per gram, Spleen: 0.13 ± 0.01 % ID/g
[4]; 24.00 hr, listed as 205/6BiC-NE3TA
  percent injected dose per gram, Kidney: 0.73 ± 0.19 % ID/g
[4]; normal athymic mice
  blood and organ clearance (in words): rapidly cleared from the blood, lung, heart, and femur

## O=C([O-])CN1CCN(CCN(CC(=O)[O-])CC(=O)[O-])CCN(CC(=O)[O-])CC1.[Bi+3] [^205/6Bi-NETA]
[2]; 0 h
  retention in liver: 5.93±0.78 % ID/g
[2]; 24 h
  retention in liver: 7.31±1.521 % ID/g
